Active and inactive are the calls of the source. The rule behind the calls is not given here.
System: CCRIS mutagenicity, Ames/micronucleus/aberration tests
Test: CCRIS mutagenicity studies
[1] = Test System: AMES SALMONELLA TYPHIMURIUM, Strain/Indicator: TA100, Metabolic Activation: NONE, Method: STANDARD PLATE
[2] = Test System: AMES SALMONELLA TYPHIMURIUM, Strain/Indicator: TA97, Metabolic Activation: NONE, Method: STANDARD PLATE
[3] = Test System: AMES SALMONELLA TYPHIMURIUM, Strain/Indicator: TA97, Metabolic Activation: RAT, LIVER, S-9, AROCLOR 1254, Method: STANDARD PLATE
[4] = Test System: AMES SALMONELLA TYPHIMURIUM, Strain/Indicator: TA98, Metabolic Activation: NONE, Method: STANDARD PLATE
[5] = Test System: AMES SALMONELLA TYPHIMURIUM, Strain/Indicator: TA98, Metabolic Activation: RAT, LIVER, S-9, AROCLOR 1254, Method: STANDARD PLATE
[6] = Test System: AMES SALMONELLA TYPHIMURIUM, Strain/Indicator: TA100, Metabolic Activation: RAT, LIVER, S-9, AROCLOR 1254, Method: STANDARD PLATE
[7] = Test System: AMES SALMONELLA TYPHIMURIUM, Strain/Indicator: TA104, Metabolic Activation: NONE, Method: STANDARD PLATE
[8] = Test System: AMES SALMONELLA TYPHIMURIUM, Strain/Indicator: TA102, Metabolic Activation: NONE, Method: STANDARD PLATE
[9] = Test System: AMES SALMONELLA TYPHIMURIUM, Strain/Indicator: TA1535, Metabolic Activation: NONE, Method: STANDARD PLATE

## CCCCN(N=O)C(=O)OCC
Test System: AMES SALMONELLA TYPHIMURIUM, Strain/Indicator: TA98, Metabolic Activation: RAT, LIVER, S-9, KC500 OR PHENOBARBITAL, Method: LIQUID SUSPENSION
  mutagenic call: active; positive
Test System: AMES SALMONELLA TYPHIMURIUM, Strain/Indicator: TA100, Metabolic Activation: RAT, LIVER, S-9, KC500 OR PHENOBARBITAL, Method: LIQUID SUSPENSION
  mutagenic call: active; positive

## O=CC(=C(Cl)Cl)C(Cl)Cl
[1]
  mutagenic call: active; positive

## C/C=C(\Cl)C1=CC(=O)[C@]23C[C@H]2C(C)(C)O[C@]3(O)C1=O
Test System: AMES SALMONELLA TYPHIMURIUM, Strain/Indicator: TA97, Metabolic Activation: NONE
  mutagenic call: inactive; negative
Test System: AMES SALMONELLA TYPHIMURIUM, Strain/Indicator: TA98, Metabolic Activation: NONE
  mutagenic call: inactive; negative
Test System: AMES SALMONELLA TYPHIMURIUM, Strain/Indicator: TA100, Metabolic Activation: NONE
  mutagenic call: inactive; negative
Test System: AMES SALMONELLA TYPHIMURIUM, Strain/Indicator: TA102, Metabolic Activation: NONE
  mutagenic call: active; positive

## Oc1cccc(Cl)c1
[2]
  mutagenic call: active; positive
[3]
  mutagenic call: active; positive
[4]
  mutagenic call: active; positive
[5]
  mutagenic call: active; positive
[1]
  mutagenic call: active; positive
[6]
  mutagenic call: inactive; negative
[7]
  mutagenic call: inactive; negative
Test System: AMES SALMONELLA TYPHIMURIUM, Strain/Indicator: TA104, Metabolic Activation: RAT, LIVER, S-9, AROCLOR 1254, Method: STANDARD PLATE
  mutagenic call: inactive; negative

## O=C(O)COc1ccc(Cl)cc1
[2]
  mutagenic call: inactive; negative
[3]
  mutagenic call: inactive; negative
[4]
  mutagenic call: inactive; negative
[5]
  mutagenic call: inactive; negative
[1]
  mutagenic call: inactive; negative
[6]
  mutagenic call: inactive; negative
[8]
  mutagenic call: inactive; negative
Test System: AMES SALMONELLA TYPHIMURIUM, Strain/Indicator: TA102, Metabolic Activation: RAT, LIVER, S-9, AROCLOR 1254, Method: STANDARD PLATE
  mutagenic call: inactive; negative

## c1ccc2c(c1)-c1cc3ccc4ccccc4c3cc1C1OC21 (centres undefined)
[4]
  mutagenic call: inactive; negative
[1]
  mutagenic call: inactive; negative
Test System: AMES SALMONELLA TYPHIMURIUM, Strain/Indicator: TA1537, Metabolic Activation: NONE, Method: STANDARD PLATE
  mutagenic call: active; positive
Test System: CHINESE HAMSTER V-79, Strain/Indicator: V-79/8-AZAGUANINE, Metabolic Activation: NONE, Method: STANDARD PLATE
  mutagenic call: active; positive

## COc1nncc2cccnc12
Test System: AMES SALMONELLA TYPHIMURIUM, Strain/Indicator: TA98, Metabolic Activation: NONE, Method: PREINCUBATION
  mutagenic call: inactive; negative
Test System: AMES SALMONELLA TYPHIMURIUM, Strain/Indicator: TA98, Metabolic Activation: RAT, LIVER, S-9, PCB, Method: PREINCUBATION
  mutagenic call: inactive; negative
Test System: AMES SALMONELLA TYPHIMURIUM, Strain/Indicator: TA100, Metabolic Activation: NONE, Method: PREINCUBATION
  mutagenic call: inactive; negative
Test System: AMES SALMONELLA TYPHIMURIUM, Strain/Indicator: TA100, Metabolic Activation: RAT, LIVER, S-9, PCB, Method: PREINCUBATION
  mutagenic call: inactive; negative

## Nc1ncn([C@@H]2O[C@H](CO)[C@@H](O)[C@H]2O)c(=O)n1
End Point: IN VITRO CHROMOSOMAL ABERRATIONS, Test System: CHO CELLS (K1), Metabolic Activation: NONE
  mutagenic call: active; positive
End Point: IN VITRO CHROMOSOMAL ABERRATIONS, Test System: CHO CELLS (XRS-5), Metabolic Activation: NONE
  mutagenic call: active; positive
Test System: AMES SALMONELLA TYPHIMURIUM, Strain/Indicator: TA92, Metabolic Activation: NONE, Method: STANDARD PLATE
  mutagenic call: active; positive
Test System: AMES SALMONELLA TYPHIMURIUM, Strain/Indicator: TA98, Metabolic Activation: NONE, Method: FLUCTUATION (MICROTITER)
  mutagenic call: active; positive
[1]
  mutagenic call: active; positive
[8]
  mutagenic call: active; positive
[7]
  mutagenic call: active; positive
[9]
  mutagenic call: active; positive
Test System: AMES SALMONELLA TYPHIMURIUM, Strain/Indicator: TA1535, Metabolic Activation: RAT, LIVER, S-9, AROCLOR 1254, Method: STANDARD PLATE
  mutagenic call: active; positive
Test System: AMES SALMONELLA TYPHIMURIUM, Strain/Indicator: TA1537, Metabolic Activation: NONE, Method: FLUCTUATION (MICROTITER)
  mutagenic call: inactive; negative
Test System: AMES SALMONELLA TYPHIMURIUM, Strain/Indicator: TA2638, Metabolic Activation: NONE, Method: STANDARD PLATE
  mutagenic call: active; positive
Test System: AMES SALMONELLA TYPHIMURIUM, Strain/Indicator: TA2640, Metabolic Activation: NONE, Method: STANDARD PLATE
  mutagenic call: inactive; negative
Test System: AMES SALMONELLA TYPHIMURIUM, Strain/Indicator: TA7001, Metabolic Activation: NONE, Method: FLUCTUATION (MICROTITER)
  mutagenic call: inactive; negative
Test System: AMES SALMONELLA TYPHIMURIUM, Strain/Indicator: TA7002, Metabolic Activation: NONE, Method: FLUCTUATION (MICROTITER)
  mutagenic call: inactive; negative
Test System: AMES SALMONELLA TYPHIMURIUM, Strain/Indicator: TA7003, Metabolic Activation: NONE, Method: FLUCTUATION (MICROTITER)
  mutagenic call: inactive; negative
Test System: AMES SALMONELLA TYPHIMURIUM, Strain/Indicator: TA7004, Metabolic Activation: NONE, Method: FLUCTUATION (MICROTITER)
  mutagenic call: active; positive
Test System: AMES SALMONELLA TYPHIMURIUM, Strain/Indicator: TA7005, Metabolic Activation: NONE, Method: FLUCTUATION (MICROTITER)
  mutagenic call: inactive; negative
Test System: AMES SALMONELLA TYPHIMURIUM, Strain/Indicator: TA7006, Metabolic Activation: NONE, Method: FLUCTUATION (MICROTITER)
  mutagenic call: active; positive
Test System: CHINESE HAMSTER OVARY, Strain/Indicator: CHO-AS52/6-THIOGUANINE, Metabolic Activation: NONE
  mutagenic call: active; positive
Test System: MOUSE LYMPHOMA, Strain/Indicator: L5178Y (TK+/TK-), Metabolic Activation: RAT, LIVER, HEAT-DENATURED S-9, Method: SUSPENSION/PLATE
  mutagenic call: active; positive
Test System: MOUSE LYMPHOMA, Strain/Indicator: L5178Y (TK+/TK-), Metabolic Activation: RAT, LIVER, S-9, AROCLOR 1254, Method: SUSPENSION/PLATE
  mutagenic call: active; positive. reevaluation of results: inconclusive
Test System: MOUSE LYMPHOMA, Strain/Indicator: L5178Y (TK+/TK-), Metabolic Activation: RAT, LIVER, S-9, Method: SUSPENSION/PLATE
  mutagenic call: active; positive

## Cc1ccc(N=Nc2c(O)c(C(=O)O)cc3ccccc23)cc1S(=O)(=O)O
[4]
  mutagenic call: inactive; negative
Test System: AMES SALMONELLA TYPHIMURIUM, Strain/Indicator: TA98, Metabolic Activation: RAT, LIVER, S-9, Method: STANDARD PLATE
  mutagenic call: inactive; negative
[1]
  mutagenic call: inactive; negative
Test System: AMES SALMONELLA TYPHIMURIUM, Strain/Indicator: TA100, Metabolic Activation: RAT, LIVER, S-9, Method: STANDARD PLATE
  mutagenic call: inactive; negative

## COP(=O)(NC(C)=O)SC (centres undefined)
[4]
  mutagenic call: inactive; negative
[1]
  mutagenic call: inactive; negative
[9]
  mutagenic call: inactive; negative
Test System: Mouse Lymphoma, Strain/Indicator: L5178Y (TK+/TK-), Metabolic Activation: None, Method: Suspension/Plate
  mutagenic call: active; positive; dose-dependent increase
Test System: Mouse Lymphoma, Strain/Indicator: L5178Y (TK+/TK-), Metabolic Activation: Rat, liver S-9, Method: Suspension/Plate
  mutagenic call: active; positive; dose-dependent increase

## Cn1c(N)nc2cc(C#N)ccc21
Test System: AMES SALMONELLA TYPHIMURIUM, Strain/Indicator: TA98, Metabolic Activation: RAT, LIVER, S-9, AROCLOR 1254, Method: PREINCUBATION
  mutagenic call: active; positive
Test System: AMES SALMONELLA TYPHIMURIUM, Strain/Indicator: TA100, Metabolic Activation: RAT, LIVER, S-9, AROCLOR 1254, Method: PREINCUBATION
  mutagenic call: inactive; negative

Reference: PubChem BioAssay AID1259407 (Chemical Carcinogenesis Research Information System (CCRIS), 2018)
